For data set [1], the target named is T1, Mucosa-associated lymphoid tissue lymphoma translocation protein 1 (Homo sapiens, UniProt Q9UDY8).
T1 sequence (Q9UDY8 whole entry): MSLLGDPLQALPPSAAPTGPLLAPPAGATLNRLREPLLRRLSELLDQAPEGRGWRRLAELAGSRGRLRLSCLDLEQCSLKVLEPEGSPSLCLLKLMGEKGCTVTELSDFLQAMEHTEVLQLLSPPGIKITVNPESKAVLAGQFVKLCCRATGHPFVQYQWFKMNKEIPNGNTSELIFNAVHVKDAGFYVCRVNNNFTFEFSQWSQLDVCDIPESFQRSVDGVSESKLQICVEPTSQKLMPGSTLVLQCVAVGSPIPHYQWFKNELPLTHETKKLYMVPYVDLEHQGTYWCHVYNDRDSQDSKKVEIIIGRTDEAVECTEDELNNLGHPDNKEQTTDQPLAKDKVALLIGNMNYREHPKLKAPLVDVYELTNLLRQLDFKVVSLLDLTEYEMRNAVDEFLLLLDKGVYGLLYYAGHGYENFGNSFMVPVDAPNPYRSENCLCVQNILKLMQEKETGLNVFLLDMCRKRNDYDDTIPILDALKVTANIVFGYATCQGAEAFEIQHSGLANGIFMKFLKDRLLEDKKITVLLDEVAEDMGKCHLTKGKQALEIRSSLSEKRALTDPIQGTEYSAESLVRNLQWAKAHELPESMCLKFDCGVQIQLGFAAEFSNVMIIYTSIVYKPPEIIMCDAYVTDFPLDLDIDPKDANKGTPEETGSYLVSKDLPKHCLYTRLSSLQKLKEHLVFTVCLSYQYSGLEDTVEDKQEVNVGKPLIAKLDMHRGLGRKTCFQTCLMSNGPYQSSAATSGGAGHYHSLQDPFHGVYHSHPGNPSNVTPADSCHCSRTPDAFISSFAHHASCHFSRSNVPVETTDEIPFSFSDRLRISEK
Nature of the data set: Allosteric inhibition of MALT1 in human OCI-LY3 cells assessed as reduction in BCL10 cleavage measured after 24 hrs by ELISA. It is filed as cell-based, OCILY3. Background: ELISA stands for enzyme-linked immunosorbent assay.

In data set [2] the target is T1, Mucosa-associated lymphoid tissue lymphoma translocation protein 1. Nature of the data set: Allosteric inhibition of human wild-type […] MALT1 (329 to 824 residues) protease activity using Ac-Leu-Arg-Ser-Arg Rh110-dPro as substrate preincubated for 60 mins followed by substrate addition and measured after 60 mins by fluorescence assay.
Data set [3] is described as follows: Solubility of the compound at pH 6.8. Format: physicochemical. The note with it: buffer.
Data set [4] can be described thus: Thermodynamic solubility of the compound at pH 6.8. Format: physicochemical. The note with it: buffer, read-out: Therm_solubility.
Data set [5] can be described thus: Dose normalized AUC in Sprague-Dawley rat at 1 mg/kg, iv administered as bolus dose. It is filed as ADME, organism-based. The note with it: in vivo.
Data set [6] is described as follows: Oral bioavailability in Sprague-Dawley rat at 3 mg/kg administered as MCT suspension. It is filed as ADME, organism-based. Conditions: in vivo.
A short description of data set [7]: Permeability of compound by PAMPA assay. It is filed as ADME. Background: In PAMPA a lipid-coated filter parts donor from acceptor wells.
The nature of data set [8]: Tmax in Sprague-Dawley rat at 1.25 mg/kg, po administered as solution. Conditions: in vivo. It is filed as ADME, organism-based.
Data set [9] can be described thus: Lipophilicity, log D of the compound at pH 7.4. It is filed as physicochemical. Conditions: buffer.
Data set [10] can be described thus: Oral bioavailability in Sprague-Dawley rat at 1.25 mg/kg administered as solution. It is filed as ADME, organism-based. The note with it: in vivo.
Data set [11] in a line: Terminal half-life in Sprague-Dawley rat at 1 mg/kg, iv administered as bolus dose. Format: ADME, organism-based. The note with it: in vivo, read-out: beta t1/2 (converted).
Data set [12] can be described thus: Dose normalized Cmax in Sprague-Dawley rat at 3 mg/kg, po administered as MCT suspension. Conditions: in vivo. It is filed as ADME, organism-based.
The nature of data set [13]: Intrinsic clearance in rat liver microsomes. It is filed as ADME, Microsome. The note with it: read-out: CLH. On the technique in general: Liver microsomes are vesicles of endoplasmic reticulum, rich in cytochrome P450 enzymes.
Data set [14] is described as follows: Dose normalized AUC in Sprague-Dawley rat at 3 mg/kg, po administered as MCT suspension. Format: ADME, organism-based. The note with it: in vivo.
Data set [15] is described as follows: Dose normalized AUC in Sprague-Dawley rat at 1.25 mg/kg, po administered as solution. Conditions: in vivo. It is filed as ADME, organism-based.
Data set [16] is described as follows: Protein binding in rat plasma. Format: ADME, cell-free. Conditions: read-out: PPB (converted).
A short description of data set [17]: Volume of distribution at steady state in Sprague-Dawley rat at 1 mg/kg, iv administered as bolus dose. The note with it: in vivo, read-out: Vdss. It is filed as ADME, organism-based.
A short description of data set [18]: Tmax in Sprague-Dawley rat at 3 mg/kg, po administered as MCT suspension. Format: ADME, organism-based. The note with it: in vivo.
The nature of data set [19]: Dose normalized Cmax in Sprague-Dawley rat at 1.25 mg/kg, po administered as solution. Format: ADME, organism-based. Conditions: in vivo.
The nature of data set [20]: Clearance in male Sprague-Dawley rat at 1 mg/kg, iv administered as bolus dose. It is filed as ADME, organism-based. The note with it: in vivo.
A short description of data set [21]: Solubility of compound at pH 6.8 assessed as extrapolated log of solubility. Format: physicochemical. The note with it: buffer.
Data set [22] is described as follows: Solubility of compound at pH 6.8. It is filed as physicochemical. The note with it: buffer.
Data set [23] concerns the target Voltage-gated inwardly rectifying potassium channel KCNH2 (Homo sapiens, UniProt Q12809). Nature of the data set: Inhibition of human ERG.

≈ marks a conversion by molar mass, not a printed value.

Chain of Voltage-gated inwardly rectifying potassium channel KCNH2 (Q12809 whole entry): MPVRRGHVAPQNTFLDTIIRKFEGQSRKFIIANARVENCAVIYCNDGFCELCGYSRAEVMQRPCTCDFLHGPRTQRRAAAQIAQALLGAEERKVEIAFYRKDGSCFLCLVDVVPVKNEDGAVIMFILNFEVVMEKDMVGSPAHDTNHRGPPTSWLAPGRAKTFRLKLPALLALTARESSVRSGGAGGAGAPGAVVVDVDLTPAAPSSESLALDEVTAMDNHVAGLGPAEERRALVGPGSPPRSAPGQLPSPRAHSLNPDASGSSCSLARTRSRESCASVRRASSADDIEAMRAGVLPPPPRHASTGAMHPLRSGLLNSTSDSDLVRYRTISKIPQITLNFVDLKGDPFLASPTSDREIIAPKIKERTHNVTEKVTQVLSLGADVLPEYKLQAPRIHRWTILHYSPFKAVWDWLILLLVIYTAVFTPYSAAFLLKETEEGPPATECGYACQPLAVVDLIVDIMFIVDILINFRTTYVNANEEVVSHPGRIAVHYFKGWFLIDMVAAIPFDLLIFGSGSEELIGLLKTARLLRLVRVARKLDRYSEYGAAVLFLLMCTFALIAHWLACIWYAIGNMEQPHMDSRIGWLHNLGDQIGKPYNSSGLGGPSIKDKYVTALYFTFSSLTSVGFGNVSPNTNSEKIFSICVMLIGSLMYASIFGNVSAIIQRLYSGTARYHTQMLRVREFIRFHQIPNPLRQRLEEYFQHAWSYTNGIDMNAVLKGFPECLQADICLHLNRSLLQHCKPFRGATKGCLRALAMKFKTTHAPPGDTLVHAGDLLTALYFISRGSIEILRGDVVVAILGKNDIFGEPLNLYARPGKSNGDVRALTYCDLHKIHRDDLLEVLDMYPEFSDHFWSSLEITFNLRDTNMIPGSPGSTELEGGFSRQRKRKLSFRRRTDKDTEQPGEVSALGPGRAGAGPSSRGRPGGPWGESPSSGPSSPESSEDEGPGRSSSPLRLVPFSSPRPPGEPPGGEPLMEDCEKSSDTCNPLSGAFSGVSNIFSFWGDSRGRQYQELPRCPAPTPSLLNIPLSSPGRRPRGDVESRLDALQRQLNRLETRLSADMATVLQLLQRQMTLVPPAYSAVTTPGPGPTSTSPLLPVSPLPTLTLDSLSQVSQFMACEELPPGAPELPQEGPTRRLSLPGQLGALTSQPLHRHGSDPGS

Regarding `O=C(Nc1ccc(-n2cncn2)c(Cl)c1)N[C@H]1COc2ccc(Br)cc2C1`, the half-inhibitory concentration (IC50) in data set [1] came to 1960 nM; in data set [2], 26 nM.
`COc1ccc(CC(=O)NC2COc3ccccc3C2)cc1Cl` (stereo not given) gave a 50% inhibitory concentration (IC50) in data set [2] of more than 100000 nM.
With `COc1ccc(NC(=O)NC2COc3ccc(F)cc3C2)cc1Cl` (racemic), the IC50 in [1] came out at 1250 nM; in data set [2] it was 57 nM.
Consider `COc1ncc(NC(=O)Nc2cnc3cc(Cl)nn3c2N2[C@@H](C)COC[C@@H]2C)cc1Cl`, for which the concentration in solution in data set [3] (solubility) was 81 µM (≈ 37.8 µg/mL). Besides, the IC50 was determined as 330 nM in data set [1] and 6 nM in data set [2].
On the same counts, the results for `COc1ccc(NC(=O)Nc2cnc3ccc(C#N)cc3c2N2CCOC[C@@H]2C)cc1Cl` are less than 4 µM, 120 nM and 6 nM.
For `COc1ncc(NC(=O)Nc2cnc3ccc(C#N)cc3c2N2CCOC[C@@H]2C)cc1Cl`, the solubility thermodynamic in [4] was 0.2 µg/mL (≈ 0.442 µM). Moreover, the solubility in [3] was less than 4 µM. Further, the concentration for half-maximal inhibition (IC50) in data set [1] amounted to 37 nM; in [2], 5 nM. Also, the AUC/dose in data set [5] is 1240 nM·h; in data set [14], 103 nM·h; in [15], 520 nM·h. Besides, the bioavailability in data set [6] is 8%; in [10], 42%. In addition, the “log(permeability)” value in [7] is -4.9. Moreover, the Tmax was 3 h in data set [8] and 8 h in [18]. The logD in data set [9] turned out to be 3.8. Further, the half-life in data set [11] was 2.1 h. Further, the Cmax/dose in data set [12] was 11 nM; in [19], 71 nM. Besides, the microsomal CLint in data set [13] is 3.4 µL/min/mg. Besides, in data set [16], the fraction unbound was 0.025. For the same molecule, the Vd in data set [17] is 4.8 L/kg. This molecule also gave a clearance in [20] of 31 mL/min/kg.
As to `COc1ccc(NC(=O)Nc2cnc3ccc(C#N)cc3c2N(C)C2CCOCC2)cc1Cl`, the solubility in [3] turned out to be 27 µM (≈ 12.6 µg/mL). Besides, the concentration for half-maximal inhibition (IC50) in [1] came out at 670 nM; in data set [2], 8 nM. Besides, the log1/S in data set [21] and in data set [22] was 7.1 throughout. Moreover, the log1/S0 in data set [22] stood at 7.1.
For the molecule `COc1ncc(NC(=O)NC2COc3ccc(Br)cc3C2)cc1Cl` (stereo not given), the IC50 in data set [1] was 3540 nM; in data set [2] it was 31 nM.
On the same counts, the results for `COc1ccc(NC(=O)NC2CSc3ccc(F)cc3C2)cc1Cl` (racemic) are 4270 nM and 145 nM.
Take `COc1ncc(NC(=O)Nc2cnc3cc(Cl)nn3c2N2CCOCC2(C)C)cc1Cl`: in data set [3], the solubility was less than 4 µM. Besides, the IC50 in data set [1] was 80 nM; in [2], 2 nM.
In [2], `COc1ccc(N(C)C(=O)NC2COc3ccc(Br)cc3C2)cc1Cl` (stereo not given) displayed an IC50 of more than 100000 nM.
In data set [3], `COc1ncc(NC(=O)Nc2cnc3ccc(C#N)cc3c2N(C)C2CCOCC2)cc1Cl` gave a solubility of less than 4 µM. Besides, the IC50 in [1] was found to be 190 nM; in data set [2], 2 nM.
Regarding `COc1ccc(NC(=O)NC2COc3ccc(C#N)cc3C2)cc1Cl` (racemic), the IC50 in data set [1] was 1920 nM; in [2], 150 nM.
Consider `COc1ccc(NC(=O)NC2CCc3ccccc3C2)cc1Cl` (racemic), for which the IC50 in data set [2] was more than 100000 nM.
In [3], `C[C@H]1COCCN1c1c(NC(=O)Nc2cnc(OC3CCN(C)CC3)c(Cl)c2)cnc2ccc(F)cc12` had a solubility of 60 µM (≈ 31.7 µg/mL). Moreover, the half-maximal inhibitory concentration (IC50) in [2] was 70 nM.
Take `COc1ccc(NC(=O)NC2COc3ccc(Br)cc3C2)cc1Cl` (racemic): inhibition in [2] was half-maximal at 50 nM (IC50).
`COc1ccc(NC(=O)NC2COc3ccccc3C2)cc1Cl` (racemic): the IC50 in [1] is 2300 nM; in data set [2], 245 nM.
For the molecule `COc1ncc(NC(=O)Nc2cnc3ccc(F)cc3c2N(C)C2CCCN(C)C2)cc1Cl` (stereo not given), the values for the IC50 in data set [23] and in [2] were 9000 nM and 70 nM, respectively. This molecule yielded a solubility in [3] of 61 µM (≈ 28.9 µg/mL).
The molecule `COc1ccc(NC(=O)N[C@H]2COc3ccccc3C2)cc1Cl` returned a 50% inhibitory concentration (IC50) in [2] of 135 nM.
As for `COc1ccc(NC(=O)N(C)C2COc3ccc(Br)cc3C2)cc1Cl` (stereo not given), in [2], the half-maximal inhibitory concentration (IC50) was more than 100000 nM.
`COc1ccc(NC(=O)Nc2cnc3ccc(Br)cc3c2)cc1Cl`: the solubility in [3] was less than 4 µM. In addition, the figures for the IC50 in data set [1] and in [2] were 4820 nM and 242 nM, respectively.
Consider `COc1ccc(NC(=O)N[C@@H]2COc3ccccc3C2)cc1Cl`, for which the IC50 in data set [2] was more than 100000 nM.
`COc1ncc(NC(=O)Nc2cnc3cc(Br)nn3c2N2CCOC[C@@H]2C)cc1Cl`: the solubility in data set [3] is 155 µM (≈ 77 µg/mL). In addition, the concentration for half-maximal inhibition (IC50) in [1] worked out at 740 nM; in data set [2], 17 nM.
`COc1ccc(NC(=O)CC2COc3ccccc3C2)cc1Cl` (stereo not given): in data set [2], the 50% inhibitory concentration (IC50) was found to be 1000 nM.
For the molecule `COc1ccc(NC(=O)Nc2cnc3ccc(Br)cc3c2Cl)cc1Cl`, in data set [3], the solubility is less than 4 µM. Further, the half-inhibitory concentration (IC50) in data set [1] came to 510 nM; in data set [2], 29 nM.
In turn, `CC1(C)COCCN1c1c(NC(=O)Nc2ccnc(C(F)(F)F)c2)cnc2cc(Cl)nn12` came in with a solubility in data set [3] of 8 µM (≈ 3.76 µg/mL). The 50% inhibitory concentration (IC50) in data set [1] is 280 nM; in data set [2], 6 nM.

For orientation: IC50 means the concentration that inhibits the measured activity by half. One may read the solubility as how much of the substance goes into solution per volume. A lower solubility goes with little dissolved substance. As usually defined, the bioavailability is dose-corrected exposure relative to a reference, in per cent. Read a low bioavailability as poor availability. By Tmax is commonly meant the time at which the peak concentration occurs. As a reminder, the logD is lipophilicity at a set pH, counting ionised and neutral species. High values mean higher lipophilicity, low ones lower lipophilicity. Broadly, the clearance is the rate of elimination divided by the concentration. A low value points to inefficient removal.

These data come from ChEMBL document CHEMBL4673331 (J Med Chem, 2020).
